Laboratory results: publication PMC8843100, “Development of newly synthesised quinazolinone-based CDK2 inhibitors with potent efficacy against melanoma” (Journal of Enzyme Inhibition and Medicinal Chemistry, 2022)

Tests used:
Assay in all cases: NCI-60 single dose screen, sulforhodamine B
Format in all cases: cell-based, human
HS 578T = settings: Breast cancer HS 578T; single dose 10^−5 M
Procedure: (§1) In this research, all of the newly synthesised quinazolinones were subjected to in vitro anticancer screening by the National Cancer Institute (USA) against 60 different human cell lines including leukaemia, non-small cell lung cancer, colon cancer, CNS cancer, melanoma, ovarian cancer, renal cancer, prostate cancer, and breast cancer. The tested compounds were evaluated at a single dose (10^−5 M). […] Regarding the benzenesulfonamide counterparts, the introduction of an electron-withdrawing group on the benzenesulfonamide moiety increased the inhibitory activity on the glioblastoma cell line SNB-75 as depicted by the chloro derivative 5c (GI% = 63.09) which was higher than that of the unsubstituted derivative 5a (GI% = 40.06) and the methyl derivative 5b (GI% = 33.03).
(§2) 1. Cytotoxicity screening against a panel of 60 human tumor cell lines
(§3) All the compounds were selected for NCI-60 Human Tumor Cell Lines Screen by the Developmental Therapeutics Program (DTP) at the National Cancer Institute (NCI), Maryland, USA. The operation of this screen utilizes 60 different human tumor cell lines, representing leukemia, non-small-cell lung cancer, colon cancer, CNS cancer, melanoma, ovarian cancer, renal cancer, prostate cancer and breas t cancer.
(§4) The compounds were supplied as dry powder and a single concentration is tested in all 60 cell lines at a single dose of 10 µM solution in dimethyl sulfoxide (DMSO) using Sulforhodamine B assay. Briefly, cells are seeded in 96 well plates at an appropriate density and incubated for 1 day. After 1 day, some of the plates are processed to determine the density time zero. To the remaining plates, compounds are added at 10 µM concentration. Plates are incubated a further 2 days, then fixed and staine d with sulphorhodamine B. Growth inhibition is calculated relative to cells without drug treatment and the time zero control. The use of a time zero control allows the determination of cell kill as well as net growth inhibition. […]

HCT-116 = settings: Colon cancer HCT-116; single dose 10^−5 M
Procedure: as §1, §2, §3, §4

SNB-75 = settings: CNS cancer SNB-75; single dose 10^−5 M
Procedure: as §1, §2, §3, §4

RPMI-8226 = settings: Leukaemia RPMI-8226; single dose 10^−5 M
Procedure: as §1, §2, §3, §4

OVCAR-3 = settings: Ovarian cancer OVCAR-3; single dose 10^−5 M
Procedure: as §1, §2, §3, §4

MDA-MB-231/ATCC = settings: Breast cancer MDA-MB-231/ATCC; single dose 10^−5 M
Procedure: as §1, §2, §3, §4

U251 = settings: CNS cancer U251; single dose 10^−5 M
Procedure: as §1, §2, §3, §4

MALME-3M = settings: Melanoma MALME-3M; single dose 10^−5 M
Procedure: as §1, §2, §3, §4

NCI/ADR-RES = settings: Ovarian cancer NCI/ADR-RES; single dose 10^−5 M
Procedure: as §1, §2, §3, §4

HCT-15 = settings: Colon cancer HCT-15; single dose 10^−5 M
Procedure: as §1, §2, §3, §4

OVCAR-8 = settings: Ovarian cancer OVCAR-8; single dose 10^−5 M
Procedure: as §1, §2, §3, §4

SF-295 = settings: CNS cancer SF-295; single dose 10^−5 M
Procedure: as §1, §2, §3, §4

SNB-19 = settings: CNS cancer SNB-19; single dose 10^−5 M
Procedure: as §1, §2, §3, §4

BT-549 = settings: Breast cancer BT-549; single dose 10^−5 M
Procedure: as §1, §2, §3, §4

MOLT-4 = settings: Leukaemia MOLT-4; single dose 10^−5 M
Procedure: as §1, §2, §3, §4

KM12 = settings: Colon cancer KM12; single dose 10^−5 M
Procedure: as §1, §2, §3, §4

MDA-MB-435 = settings: Melanoma MDA-MB-435; single dose 10^−5 M
Procedure: as §1, §2, §3, §4

T-47D = settings: Breast cancer T-47D; single dose 10^−5 M
Procedure: as §1, §2, §3, §4

NCI-H522 = settings: Non-small cell lung cancer NCI-H522; single dose 10^−5 M
Procedure: as §1, §2, §3, §4

NCI-H322M = settings: Non-small cell lung cancer NCI-H322M; single dose 10^−5 M
Procedure: as §1, §2, §3, §4

SF-268 = settings: CNS cancer SF-268; single dose 10^−5 M
Procedure: as §1, §2, §3, §4

SR = settings: Leukaemia SR; single dose 10^−5 M
Procedure: as §1, §2, §3, §4

HOP-92 = settings: Non-small cell lung cancer HOP-92; single dose 10^−5 M
Procedure: as §1, §2, §3, §4

UACC-62 = settings: Melanoma UACC-62; single dose 10^−5 M
Procedure: as §1, §2, §3, §4

RXF 393 = settings: Renal cancer RXF 393; single dose 10^−5 M
Procedure: as §1, §2, §3, §4

NCI-H460 = settings: Non-small cell lung cancer NCI-H460; single dose 10^−5 M
Procedure: as §1, §2, §3, §4

SN12C = settings: Renal cancer SN12C; single dose 10^−5 M
Procedure: as §1, §2, §3, §4

PC-3 = settings: Prostate cancer PC-3; single dose 10^−5 M
Procedure: as §1, §2, §3, §4

HOP-62 = settings: Non-small cell lung cancer HOP-62; single dose 10^−5 M
Procedure: as §1, §2, §3, §4

HT29 = settings: Colon cancer HT29; single dose 10^−5 M
Procedure: as §1, §2, §3, §4

HCC-2998 = settings: Colon cancer HCC-2998; single dose 10^−5 M
Procedure: as §1, §2, §3, §4

SMILES	GI% at 10^−5 M (HS 578T)	GI% at 10^−5 M (HCT-116)	GI% at 10^−5 M (SNB-75)	GI% at 10^−5 M (RPMI-8226)	GI% at 10^−5 M (OVCAR-3)	GI% at 10^−5 M (MDA-MB-231/ATCC)	GI% at 10^−5 M (U251)	GI% at 10^−5 M (MALME-3M)	GI% at 10^−5 M (NCI/ADR-RES)	GI% at 10^−5 M (HCT-15)	GI% at 10^−5 M (OVCAR-8)	GI% at 10^−5 M (SF-295)	GI% at 10^−5 M (SNB-19)	GI% at 10^−5 M (BT-549)	GI% at 10^−5 M (MOLT-4)	GI% at 10^−5 M (KM12)	GI% at 10^−5 M (MDA-MB-435)	GI% at 10^−5 M (T-47D)	GI% at 10^−5 M (NCI-H522)	GI% at 10^−5 M (NCI-H322M)	other results
O=c1c2ccccc2nc(COc2ccccc2)n1NS(=O)(=O)c1ccccc1 [Compound 5a, N-(4-oxo-2-(phenoxymethyl)quinazolin-3(4H)-yl)benzenesulfonamide]	– (– means GI < 10%)	– (– means GI < 10%)	40.06%	– (– means GI < 10%)	– (– means GI < 10%)	13.77%	– (– means GI < 10%)	– (– means GI < 10%)	– (– means GI < 10%)	– (– means GI < 10%)	– (– means GI < 10%)	– (– means GI < 10%)	– (– means GI < 10%)	– (– means GI < 10%)	– (– means GI < 10%)	– (– means GI < 10%)	– (– means GI < 10%)	– (– means GI < 10%)	– (– means GI < 10%)	– (– means GI < 10%)	GI% at 10^−5 M (SF-268): – (– means GI < 10%); GI% at 10^−5 M (SR): – (– means GI < 10%); GI% at 10^−5 M (HOP-92): 10.25%; GI% at 10^−5 M (UACC-62): – (– means GI < 10%); GI% at 10^−5 M (RXF 393): – (– means GI < 10%); GI% at 10^−5 M (NCI-H460): – (– means GI < 10%); GI% at 10^−5 M (SN12C): 11.46%; GI% at 10^−5 M (PC-3): – (– means GI < 10%); GI% at 10^−5 M (HOP-62): 16.59%; GI% at 10^−5 M (HT29): – (– means GI < 10%); GI% at 10^−5 M (HCC-2998): – (– means GI < 10%)
Cc1ccc(S(=O)(=O)Nn2c(COc3ccccc3)nc3ccccc3c2=O)cc1 [Compound 5b, 4-methyl-N-(4-oxo-2-(phenoxymethyl)quinazolin-3(4H)-yl)benzenesulfonamide]	– (– means GI < 10%)	– (– means GI < 10%)	33.03%	– (– means GI < 10%)	– (– means GI < 10%)	10.94%	– (– means GI < 10%)	– (– means GI < 10%)	– (– means GI < 10%)	– (– means GI < 10%)	– (– means GI < 10%)	– (– means GI < 10%)	– (– means GI < 10%)	– (– means GI < 10%)	– (– means GI < 10%)	– (– means GI < 10%)	– (– means GI < 10%)	– (– means GI < 10%)	– (– means GI < 10%)	– (– means GI < 10%)	GI% at 10^−5 M (SF-268): – (– means GI < 10%); GI% at 10^−5 M (SR): – (– means GI < 10%); GI% at 10^−5 M (HOP-92): 10.82%; GI% at 10^−5 M (UACC-62): – (– means GI < 10%); GI% at 10^−5 M (RXF 393): 10.27%; GI% at 10^−5 M (NCI-H460): – (– means GI < 10%); GI% at 10^−5 M (SN12C): – (– means GI < 10%); GI% at 10^−5 M (PC-3): – (– means GI < 10%); GI% at 10^−5 M (HOP-62): 11.16%; GI% at 10^−5 M (HT29): – (– means GI < 10%); GI% at 10^−5 M (HCC-2998): – (– means GI < 10%)
COc1cc(C=Nn2c(COc3ccccc3)nc3ccccc3c2=O)ccc1O [Compound 6a, 3-((4-hydroxy-3-methoxybenzylidene)amino)-2-(phenoxymethyl)quinazolin-4(3H)-one]	– (– means GI < 10%)	– (– means GI < 10%)	13.12%	– (– means GI < 10%)	– (– means GI < 10%)	10.92%	– (– means GI < 10%)	– (– means GI < 10%)	– (– means GI < 10%)	– (– means GI < 10%)	– (– means GI < 10%)	– (– means GI < 10%)	– (– means GI < 10%)	– (– means GI < 10%)	– (– means GI < 10%)	– (– means GI < 10%)	– (– means GI < 10%)	– (– means GI < 10%)	16.82%	– (– means GI < 10%)	GI% at 10^−5 M (SF-268): – (– means GI < 10%); GI% at 10^−5 M (SR): – (– means GI < 10%); GI% at 10^−5 M (HOP-92): – (– means GI < 10%); GI% at 10^−5 M (UACC-62): – (– means GI < 10%); GI% at 10^−5 M (RXF 393): – (– means GI < 10%); GI% at 10^−5 M (NCI-H460): – (– means GI < 10%); GI% at 10^−5 M (SN12C): 10.37%; GI% at 10^−5 M (PC-3): – (– means GI < 10%); GI% at 10^−5 M (HOP-62): – (– means GI < 10%); GI% at 10^−5 M (HT29): – (– means GI < 10%); GI% at 10^−5 M (HCC-2998): – (– means GI < 10%)
O=c1c2ccccc2nc(COc2ccccc2)n1N=CC=Cc1ccccc1 [Compound 6b, 2-(phenoxymethyl)-3-((3-phenylallylidene)amino)quinazolin-4(3H)-one]	– (– means GI < 10%)	– (– means GI < 10%)	16.57%	12.52%	– (– means GI < 10%)	– (– means GI < 10%)	– (– means GI < 10%)	– (– means GI < 10%)	– (– means GI < 10%)	23.15%	– (– means GI < 10%)	– (– means GI < 10%)	17.13%	– (– means GI < 10%)	– (– means GI < 10%)	– (– means GI < 10%)	– (– means GI < 10%)	– (– means GI < 10%)	18.6%	– (– means GI < 10%)	GI% at 10^−5 M (SF-268): – (– means GI < 10%); GI% at 10^−5 M (SR): 14.34%; GI% at 10^−5 M (HOP-92): – (– means GI < 10%); GI% at 10^−5 M (UACC-62): – (– means GI < 10%); GI% at 10^−5 M (RXF 393): – (– means GI < 10%); GI% at 10^−5 M (NCI-H460): – (– means GI < 10%); GI% at 10^−5 M (SN12C): 12.39%; GI% at 10^−5 M (PC-3): 10.39%; GI% at 10^−5 M (HOP-62): – (– means GI < 10%); GI% at 10^−5 M (HT29): – (– means GI < 10%); GI% at 10^−5 M (HCC-2998): – (– means GI < 10%)
